Patent US20230019491A1, “PYRIMIDINE TBK/IKKe INHIBITOR COMPOUNDS AND USES THEREOF” (Merck Patent GmbH, priority 2017, published 2023)
Where a name gives a salt, the structure may show the parent alone.

Legend:
TBK1 = target: T1, TBK1 (Homo sapiens, UniProt Q9UHD2); experiment: TBK biochemical assay; conditions: 10 point 1:4 dose response, 30 uM top concentration, 90 min at 25° C., LabChip EZ Reader II; read-out: TBK1_IC50
T1 sequence (Q9UHD2 1-729): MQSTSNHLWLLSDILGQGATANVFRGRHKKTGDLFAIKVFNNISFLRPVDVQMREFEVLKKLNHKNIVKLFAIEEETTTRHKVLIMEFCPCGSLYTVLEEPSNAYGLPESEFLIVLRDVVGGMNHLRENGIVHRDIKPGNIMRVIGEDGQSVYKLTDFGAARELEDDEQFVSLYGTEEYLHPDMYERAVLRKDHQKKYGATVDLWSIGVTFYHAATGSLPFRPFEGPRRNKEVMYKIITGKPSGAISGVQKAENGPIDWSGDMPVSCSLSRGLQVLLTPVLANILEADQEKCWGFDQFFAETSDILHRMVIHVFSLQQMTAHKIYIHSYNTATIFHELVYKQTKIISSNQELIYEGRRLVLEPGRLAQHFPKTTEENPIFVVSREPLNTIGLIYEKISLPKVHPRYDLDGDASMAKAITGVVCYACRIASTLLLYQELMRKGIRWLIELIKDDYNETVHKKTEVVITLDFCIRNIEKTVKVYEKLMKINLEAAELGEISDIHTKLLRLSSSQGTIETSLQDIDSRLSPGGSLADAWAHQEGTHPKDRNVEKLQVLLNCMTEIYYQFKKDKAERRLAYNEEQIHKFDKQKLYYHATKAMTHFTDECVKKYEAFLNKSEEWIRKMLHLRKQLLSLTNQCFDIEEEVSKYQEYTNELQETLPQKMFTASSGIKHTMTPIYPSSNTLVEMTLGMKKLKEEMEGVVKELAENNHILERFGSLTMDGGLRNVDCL
Method in brief: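 Substrate and product were separated and quantified by microfluidic mobility-shift read (LabChip). 10 uM staurosporine served as the full-inhibition control, and the reference compound was tested from 1 uM final.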

IKKε = target: T2, IKKε (Homo sapiens, UniProt Q14164); experiment: IKKε biochemical assay; conditions: 10 point 1:4 dose response, 30 uM top concentration, 90 min at 25° C., LabChip EZ Reader II; read-out: IKKε_IC50
T2 sequence (Q14164 1-716): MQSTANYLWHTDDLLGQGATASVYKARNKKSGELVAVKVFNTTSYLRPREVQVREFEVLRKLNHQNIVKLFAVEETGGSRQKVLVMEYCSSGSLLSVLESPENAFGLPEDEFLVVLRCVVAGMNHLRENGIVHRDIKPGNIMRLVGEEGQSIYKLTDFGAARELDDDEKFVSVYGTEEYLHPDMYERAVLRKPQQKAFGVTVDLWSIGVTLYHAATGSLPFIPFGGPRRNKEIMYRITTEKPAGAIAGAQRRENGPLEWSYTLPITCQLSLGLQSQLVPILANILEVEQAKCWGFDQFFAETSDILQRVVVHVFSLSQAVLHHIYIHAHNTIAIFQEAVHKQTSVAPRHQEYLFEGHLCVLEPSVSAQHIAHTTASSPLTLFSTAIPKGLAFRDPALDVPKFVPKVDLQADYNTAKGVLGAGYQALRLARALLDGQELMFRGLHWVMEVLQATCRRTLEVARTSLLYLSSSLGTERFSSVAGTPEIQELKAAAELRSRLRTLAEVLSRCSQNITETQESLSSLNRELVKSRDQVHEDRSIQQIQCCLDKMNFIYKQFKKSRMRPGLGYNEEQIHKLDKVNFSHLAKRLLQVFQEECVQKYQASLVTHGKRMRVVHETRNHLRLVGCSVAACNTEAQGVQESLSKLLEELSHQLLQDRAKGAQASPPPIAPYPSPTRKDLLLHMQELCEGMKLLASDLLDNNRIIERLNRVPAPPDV
Method in brief: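 Compounds in 1% DMSO final were incubated with IKKε enzyme and substrate at 25° C. for 90 min, then stopped. Substrate and product peaks were resolved by LabChip EZ Reader II mobility-shift read-out. Staurosporine at 10 uM final served as the full-inhibition control.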

SMILES | IC50 (TBK1) | IC50 (IKKε)
COc1nc(Nc2nccc(-c3ccc(OC4CCOCC4)c(C#N)c3)n2)ccc1C(=O)NC1CN2CCC1CC2 (centres unmarked) [Example 21, 6-((4-(3-cyano-4-((tetrahydro-2H-pyran-4-yl)oxy)phenyl)pyrimidin-2-yl)amino)-2-methoxy-N-(quinuclidin-3-yl)nicotinamide] | < 100 nM | < 100 nM
COc1nc(Nc2ncc(F)c(-c3ccc(OC4CCN(C(=O)C(C)O)CC4(F)F)c(C#N)c3)n2)ccc1N1CCN(C2COC2)CC1 (centres unmarked) [Example 291, 2-{[33-difluoro-1-(2-hydroxypropanoyl)piperidin-4-yl]oxy}-5-[5-fluoro-2-({6-methoxy-5-[4-(oxetan-3-yl)piperazin-1-yl]pyridin-2-yl}amino)pyrimidin-4-yl]] | < 100 nM | < 100 nM
COc1nc(Nc2nccc(-c3ccc(OC4CCNCC4)c(C#N)c3)n2)ccc1C(=O)N(C)C [Example 72, 6-([4-[3-cyano-4-(piperidin-4-yloxy)phenyl]pyrimidin-2-yl]amino)-2-methoxy-N,N-dimethylpyridine-3-carboxamide] | < 100 nM | < 100 nM
COc1nc(Nc2nccc(-c3ccc(OC4CCOCC4)c(C#N)c3)n2)ccc1N1CCN(C2COC2)CC1 [Example 169, 5-{2-[6-Methoxy-5-(4-oxetan-3-yl-piperazin-1-yl)-pyridin-2-ylamino]-pyrimidin-4-yl}-2-(tetrahydro-pyran-4-yloxy)-benzonitrile] | < 100 nM | < 100 nM
COc1nc(Nc2nccc(-c3ccc(OC4CCOCC4)c(C#N)n3)n2)ccc1C1CCN(C)CC1 [Example 46, 6-(2-[[6-methoxy-5-(1-methylpiperidin-4-yl)pyridin-2-yl]amino]pyrimidin-4-yl)-3-(oxan-4-yloxy)pyridine-2-carbonitrile] | < 100 nM | < 100 nM
COc1nc(Nc2nccc(-c3ccc(OC4CCN(C(=O)[C@@H](C)O)CC4(F)F)c(C#N)c3)n2)ccc1N1CCN(C2COC2)[C@@H](C)C1 (stereo partly drawn) [Example 125, 2-[3,3-Difluoro-1-((R)-2-hydroxy-propionyl)-piperidin-4-yloxy]-5-{2-[6-methoxy-5-((S)-3-methyl-4-oxetan-3-yl-piperazin-1-yl)-pyridin-2-ylamino]-pyrimidin-4-yl}-benzonitrile] | < 100 nM | < 100 nM
N#Cc1cc(-c2ccnc(Nc3ccc(N4CCN(C5COC5)CC4)cc3)n2)ccc1OC1COC1 [Example 159, 5-[2-([4-[4-(oxetan-3-yl)piperazin-1-yl]phenyl]amino)pyrimidin-4-yl]-2-(oxetan-3-yloxy)benzonitrile] | < 100 nM | < 100 nM
COc1nc(Nc2nccc(-c3ccc(OC4CCN(C(=O)c5n[nH]c(C)n5)CC4)c(C#N)c3)n2)ccc1N1CCN(C)CC1 [Example 94, 5-(2-[[6-methoxy-5-(4-methylpiperazin-1-yl)pyridin-2-yl]amino]pyrimidin-4-yl)-2-([1-[(5-methyl-1H-1,2,4-triazol-3-yl)carbonyl]piperidin-4-yl]oxy)benzonitrile] | < 100 nM | < 100 nM
COc1nc(Nc2nccc(-c3ccc(O[C@H]4CCN(C(=O)CO)CC4(F)F)c(C#N)c3)n2)ccc1N1CCN(C)CC1 [Example 100, 2-[[(4S)-3,3-difluoro-1-(2-hydroxyacetyl)piperidin-4-yl]oxy]-5-(2-[[6-methoxy-5-(4-methylpiperazin-1-yl)pyridin-2-yl]amino]pyrimidin-4-yl)benzonitrile] | < 100 nM | < 100 nM
N#Cc1cc(-c2ccnc(Nc3ccc(C4CCN(C5COC5)CC4)cc3)n2)ccc1OC1CCNCC1(F)F (centres unmarked) [Example 150, 2-(3,3-Difluoro-piperidin-4-yloxy)-5-{2-[4-(1-oxetan-3-yl-piperidin-4-yl)-phenylamino]-pyrimidin-4-yl}-benzonitrile hydrochloride] | < 100 nM | < 100 nM
COc1cc(C(=O)N(C)C)cnc1Nc1nccc(-c2ccc(OC3CCOCC3)c(C#N)c2)n1 [Example 58, 6-([4-[3-cyano-4-(oxan-4-yloxy)phenyl]pyrimidin-2-yl]amino)-5-methoxy-N,N-dimethylpyridine-3-carboxamide] | 1000 to 5000 nM | > 5000 nM
COc1cc(Nc2nccc(-c3cc(C#N)c(OC4CCOCC4)cn3)n2)ncc1N1CCN(C)CC1 [Example 55, 2-(2-[[4-methoxy-5-(4-methylpiperazin-1-yl)pyridin-2-yl]amino]pyrimidin-4-yl)-5-(oxan-4-yloxy)pyridine-4-carbonitrile hydrochloride] | > 5000 nM | > 5000 nM
COc1nc(Nc2nccc(-c3ccc(OC4CCN(C)C4)c(C#N)c3)n2)ccc1N1CCN(C)CC1 (centres unmarked) [Example 87, 5-(2-[[6-methoxy-5-(4-methylpiperazin-1-yl)pyridin-2-yl]amino]pyrimidin-4-yl)-2-[(1-methylpyrrolidin-3-yl)oxy]benzonitrile] | < 100 nM | < 100 nM
COc1cc(C(=O)N(C)C)ncc1Nc1nccc(-c2ccc(OC3CCOCC3)c(C#N)c2)n1 [Example 47, 5-([4-[3-cyano-4-(oxan-4-yloxy)phenyl]pyrimidin-2-yl]amino)-4-methoxy-N,N-dimethylpyridine-2-carboxamide] | < 100 nM | 100 to 1000 nM
COc1nc(Nc2nccc(-c3ccc(OC4CCN(C(=O)[C@@H](C)O)CC4(F)F)c(C#N)c3)n2)ccc1N1CCN(C)CC1 (stereo partly drawn) [Example 104, 2-[3,3-Difluoro-1-((R)-2-hydroxy-propionyl)-piperidin-4-yloxy]-5-{2-[6-methoxy-5-(4-methyl-piperazin-1-yl)-pyridin-2-ylamino]-pyrimidin-4-yl}-benzonitrile] | < 100 nM | < 100 nM
COc1nc(Nc2nccc(-c3ccc(OC4CCN(C(=O)[C@H](C)O)CC4(F)F)c(C#N)c3)n2)ccc1N1CCN(C)CC1C (stereo in doubt) [Example 112, 2-[3,3-Difluoro-1-((S)-2-hydroxy-propionyl)-piperidin-4-yloxy]-5-{2-[5-((S)-2,4-dimethyl-piperazin-1-yl)-6-methoxy-pyridin-2-ylamino]-pyrimidin-4-yl}-benzonitrile] | < 100 nM | < 100 nM
COc1nc(Nc2nccc(-c3ccc(OC4CCN(C(=O)[C@H](C)O)CC4(F)F)c(C#N)n3)n2)ccc1N1CCN(C2COC2)CC1 (stereo partly drawn) [Example 304, 3-([3,3-difluoro-1-[(2S)-2-hydroxypropanoyl]piperidin-4-yl]oxy)-6-[2-([6-methoxy-5-[4-(oxetan-3-yl)piperazin-1-yl]pyridin-2-yl]amino)pyrimidin-4-yl]pyridine-2-carbonitrile] | < 100 nM | < 100 nM
N#Cc1cc(-c2ccnc(Nc3cccc(C4CCN(C5COC5)CC4)c3)n2)ccc1OC1CCN(C(=O)[C@@H](O)CO)CC1(F)F (stereo partly drawn) [Example 276, 2-[1-((S)-2,3-Dihydroxy-propionyl)-3,3-difluoro-piperidin-4-yloxy]-5-{2-[3-(l-oxetan-3-yl-piperidin-4-yl)-phenylamino]-pyrimidin-4-yl}-benzonitrile] | < 100 nM | < 100 nM
COc1nc(Nc2nccc(-c3ccc(OC4CCOCC4)c(C#N)c3)n2)ccc1N1C[C@@H](C)O[C@@H](C)C1 [Example 37, 5-[2-([5-[cis-2,6-dimethylmorpholin-4-yl]-6-methoxypyridin-2-yl]amino)pyrimidin-4-yl]-2-(oxan-4-yloxy)benzonitrile] | < 100 nM | < 100 nM
